“Also recorded” adds a separate entry of the source.
Columns and labels:
[1] = tested on: A549, human lung carcinoma; assay: MTT assay, A549 cells; assay type: cell-based; settings: 72 hours
Experimental: [The procedure below names another cell line; the source lists this cell line under the same test.] (§1) MTT Assay. Cytotoxic behavior of compound 1, DCA and cis-DDP were evaluated using the MTT assay. Solutions of the platinum complexes were freshly prepared in sterile PBS before use and quantitated by atomic absorption spectroscopy. Cells were seeded on a 96 well plate (1000 cells per well for NTera-2, U2OS, HeLa; 1400 per well for normal fibriblast; 500 per well for 7B, 10B, 175F and 150×2) in 100 μL DMEM media and incubated for 24 hours. The cells were then treated with compound 1, DCA or cis-DDP, separately at varying concentrations and incubated for 72 hours at 37° C. The cells were then treated with 20 μL of 3-(4,5-dimethylthiazol-2-yl)-2,5-diphenyltetrazolium bromide (MTT) (5 mg/mL in PBS) and incubated for 5 h. The medium was removed, the cells were lysed by adding 100 μl, of DMSO, and the absorbance of the purple formazan was recorded at 550 nm using a BioTek Synergy HT multi-detection microplate plate reader. Each well was performed in triplicate in three independent experiments for each cell line.

[2] = tested on: A2780/CP70, cisplatin-resistant human ovarian carcinoma; assay: MTT assay, A2780/CP70 cells; assay type: cell-based; settings: 72 h; for IC50: A2780/CP70 cisplatin resistant cells
Experimental: (§2) A more negative membrane potential might promote translocation of the active, cationic form of cisplatin from the cytoplasm to mitochondria, thus diminishing platination of nuclear DNA. […] Thus, a pair of cisplatin sensitive A2780 and resistant A2780/CP70 ovarian cancer cells were studied (Table 1 and FIG. 10). […] (▴) with (A) cisplatin sensitive A2780 cells and (B) cisplatin resistant A2780/CP70 cells, after 72 h as determined by the MTT assay. The controls were cisplatin and c,c,t-[Pt(NH3)2Cl2(O2CCH3)2]. […] Results for the A2780/CP70 cells indicate that DCA plays a role, in this embodiment, in making cisplatin-resistant cells susceptible towards mitaplatin treatment.
as §1

[3] = tested on: U2OS, human osteosarcoma; assay: MTT assay, U2OS cells; assay type: cell-based; settings: 72 hours
Experimental: (§3) Cell Line and Cell Culture. Healthy normal fibroblast GM61869, human cancer NTera-2, human cervical cancer HeLa, human osteosarcoma cell line U2OS were obtained from the ATCC. Cells were incubated at 37° C. in 5% CO2 and grown in DMEM medium supplemented with 10% fetal bovine serum and 1% penicillin/streptomycin. Cells were passed every 3 to 4 days and restarted from the frozen stock upon reaching pass number 20.
as §1

[4] = tested on: MRC-5, normal lung fibroblast; assay: MTT assay, MRC-5 normal cells; assay type: cell-based, human
Experimental: as §1

[5] = tested on: A2780, human ovarian carcinoma; assay: MTT assay, A2780 cells; assay type: cell-based; settings: A2780 cisplatin sensitive cells, 72 h
Experimental: as §2, §1

[6] = tested on: HeLa, human cervical cancer; assay: MTT assay, HeLa cells; assay type: cell-based; settings: 72 hours
Experimental: as §3, §1

[7] = tested on: MCF-7, human breast adenocarcinoma; assay: MTT assay, MCF-7 cells; assay type: cell-based
Experimental: [The procedure below names another cell line; the source lists this cell line under the same test.] as §1

[8] = tested on: NTera-2, human testicular cancer; assay: MTT assay, NTera-2 cells; assay type: cell-based
Experimental: as §3, §1

[9] = tested on: NTera-2 cells; assay: TMRM mitochondrial membrane potential assay, NTera-2 cells; assay type: cell-based, human; settings: listed as compound 1
Experimental: (§4) TMRM Assay. Analysis of mitochondrial membrane potential (Δψm) was carried out by using tetramethyl rhodamine methyl ester (TMRM). A similar procedure as mentioned above for the JC-1 assay was followed. Before fixing the cells, they were treated with 2 μM of TMRM for 30 min at 37° C.

[10] = tested on: HeLa; assay: Annexin-V flow cytometry, HeLa cells; assay type: cell-based, human; settings: 10 and 20 μM, 72 h
Experimental: (§5) In order to quantify mitaplatin-induced apoptosis in cancer cells, an Annexin-V was performed and analyzed using flow cytometry. With this analysis, the percentage of apoptotic cells found was determined at 72 h after exposure of mitaplatin and cisplatin.

[11] = tested on: U2OS; assay: Annexin-V flow cytometry, U2OS cells; assay type: cell-based, human; settings: 10 and 20 μM, 72 h
Experimental: as §5

[12] = tested on: A549; assay: Annexin-V flow cytometry, A549 cells; assay type: cell-based, human; settings: 10 and 20 μM, 72 h
Experimental: as §5

[13] = tested on: normal fibroblasts and cancerous NTera-2 cells; assay: Co-culture of normal fibroblasts and cancerous NTera-2 cells; assay type: cell-based, human
From the text: Cisplatin kills both NTera-2 and normal fibroblast cells

[14] = tested on: NTera-2 cells; assay: Immunofluorescence detection of cytochrome c and AIF; assay type: cell-based, human; settings: treated NTera-2 cells
Experimental: Detection of cytochrome c and AIF. Normal fibroblast or Ntera-2 cells were seeded on microscope coverslips (1 cm) at a confluence of 1600 cells per slip and incubated overnight at 37° C. in DMEM. The medium was changed and compound 1 was added to a final 500 μM. The cells were incubated for 24 or 48 h at 37° C. Medium was then removed and the cells were incubated with fixing solution for 1 h at room temperature followed by three washes with phosphate buffered saline (PBS, pH 7.4). Cells were then fixed with 4% paraformaldehyde in 0.1 M phosphate buffer (pH 7.4) at room temperature for 1 h, washed twice with PBS. Cells were then permeabilize with 0.1% Triton-X100 in PBS for 30 min, followed by six washes with PBS. Cells were then rinsed with blocking buffer (PBS, 0.1% goat serum, 0.075% glycin). Cells were then incubated for 1 h at 37° C. with the anti-cytochrome c (anti-cytochrome c (Ab-1) Sheep pAb, Calbiochem) antibody or AIF (AIF (H-300), Santa Cruz Biotechnology Inc.) antibody both diluted 1:50 in blocking buffer, washed twice with blocking buffer and incubated at 37° C. with Alexa Fluor 488 donkey anti sheep IgG (Invitrogen) antibody for cytochrome c release and Alexa Fluor 546 goat anti-rabbit IgG (Invitrogen) antibody for AIF (dilution 1:50 in blocking buffer) for 1 h. […]

[15] = tested on: healthy normal fibroblast cells; assay: JC-1 mitochondrial membrane potential assay, normal fibroblasts; assay type: cell-based; settings: 100 μM, 4 h and 48 h
From the text: (§6) The following describes a mitochondrial membrane potential assay using compound 1. JC-1 Assay: Mitochondrial attack is associated with a drop in mitochondrial transmembrane potential (Δψm). For this reason Δψm, is an important parameter of mitochondrial function and has been used as an indicator for mitochondrial death. Variation in Δψm can be studied by evaluating the changes in fluorescence intensity of cells stained with lipophilic cationic dye, 5,5′,6,6′-tetrachloro-1,1′,3,3′-tetraethylbenzimidazolylcarbocyanine iodide (JC-1). It can selectively enter mitochondria and reversibly change color from green to red as the membrane potential increases.
(§7) The negative charge established by the mitochondrial membrane potential allows the lipophilic dye, bearing a delocalized positive charge, to enter the mitochondria where it accumulates. When the critical concentration is exceeded, J-aggregates form, which becomes red. In apoptotic cells, the mitochondrial membrane potential collapses, and the JC-1 can not accumulate within the mitochondria. In these cells, JC-1 remains in the cytoplasm in a green fluorescent monomeric form. Apoptotic cells, showing primarily green fluorescence, are easily differentiated from the healthy cells which show mainly red fluorescence.
(§8) JC-1 Assay. Normal and NTera-2 cells were cultured on cover slips to a density of 1×10^6 cells/mL and incubated overnight at 37° C. […]

[16] = Cyclic voltammetry, Pt(IV)/Pt(II) couple; assay type: physicochemical
From the text: Materials and Measurements. The complexes cis-[Pt(NH3)2Cl2], and c, c, t-[Pt(NH3)2Cl2(OH)2] were synthesized as previously described. Distilled water was purified by passage through a Millipore Milli-Q Biocel water purification system (18.2 MΩ) with a 0.22 μm filter. For the detection of cisplatin 1,2-d(GpG) intrastrand adduct, a monoclonal adduct specific antibody R-C18 was used which was a gift from Anti-cytochrome c (Ab-1) sheep polyclonal antibody was procured from Calbiochem. For AIF detection, rabbit polyclonal IgG antibody was used from Santa Cruz Biotechnology, Inc. Alexa Fluor® 488 labeled secondary antibody donkey anti-(sheep IgG) was obtained from Invitrogen for cytochrome c detection. For AIF detection, Alexa Fluor® 546 labeled secondary antibody goat anti-(rabbit IgG) was purchased from Invitrogen. […] JC-1 (5,5′, 6,6′-tetrachloro-1,1′,3,3′ tetraethylbenzimidazolylcarbocyanine iodide) was obtained from Cayman Chemicals. ^1H NMR and ^195Pt NMR spectra were recorded on a Bruker AVANCE-400 NMR spectrometer with a Spectro Spin superconducting magnet in the Massachusetts Institute of Technology Department of Chemistry Instrumentation Facility (MIT DCIF). […] Fluorescence imaging studies were performed with an Axiovert 200M inverted epifluorescence microscope (Zeiss, Thornwood, N.Y.) equipped with an EM-CCD digital camera C9100 (Hamamatsu, Japan). […]

[17] = tested on: healthy normal fibroblast cells; assay: TMRM mitochondrial membrane potential assay, normal fibroblasts; assay type: cell-based; settings: listed as compound 1
Experimental: as §4

[18] = tested on: human lung cancer A549 cells and normal human lung fibroblasts MRC-5; assay: LIVE/DEAD viability assay in co-culture; assay type: cell-based; settings: co-culture A549 and MRC-5, exposure for 24 h
Experimental: Studies were also conducted on a co-culture of human lung cancer A549 cells and normal human lung fibroblasts MRC-5. […] The assay allowed for the simultaneous determination of live and dead cells in a co-culture by labeling live cells with calcein AM dye, which fluoresces only when cleaved by intracellular esterase enzymes, and ethidium […] (EthD-1), which only enters dead cells with disrupted cell membranes. […] Following mitaplatin or cisplatin exposure for 24 h, cells were stained with calcein AM (green fluorescence) and ethidium homodimer-1 (red fluorescence) to differentiate between live and dead cells, respectively.

[19] = tested on: normal MRC-5 cells; assay: Annexin-V flow cytometry, normal MRC-5 cells; assay type: cell-based, human; settings: 72 h, cisplatin at 10 μM
Experimental: as §5

[20] = tested on: human cancer NTera-2 cells; assay: JC-1 mitochondrial membrane potential assay, NTera-2 cells; assay type: cell-based; settings: 100 μM, 4 h and 48 h
From the text: as §6, §7, §8

[21] = tested on: NTera, HeLa, U2OS, A549, and MCF-7 cancer cells as well as MRC-5 normal fibroblasts; assay: MTT assay, control experiments in all cells; assay type: cell-based, human
Experimental: The ability of the compound 1 to promote cell death was determined using the MTT assay and the results were compared against those for cisplatin or -2 DCA using NTera, HeLa, U2OS, A549, and MCF-7 cancer cells as well as MRC-5 normal fibroblasts (FIG. 3). […] This enhanced potency of mitaplatin is consistent with the expected dual killing mechanism.
as §1

| Compound | IC50 [1] | IC50 [2] | IC50 [3] | apoptosis (Annexin-V) [10] | apoptosis (Annexin-V) [11] | apoptosis (Annexin-V) [12] | cell killing in co-culture [13] | IC50 ([4]; 72 hours) | IC50 [5] | IC50 [6] | apoptosis (Annexin-V) [19] | IC50 ([7]; 72 hours) | IC50 ([8]; 72 hours) | also measured |
| --- | --- | --- | --- | --- | --- | --- | --- | --- | --- | --- | --- | --- | --- | --- |
| O=C(O)C(Cl)Cl [DCA, Dichloroacetic acid] | – | – | – | – | – | – | – | – | – | – | – | – | – | IC50 ([1]; Homo sapiens): > 200 µM; IC50 ([2]; Homo sapiens): > 120 µM; IC50 ([3]; Homo sapiens): > 100 µM; IC50 ([4]; Homo sapiens, MRC5, 72 hours): > 100 µM; IC50 ([5]; Homo sapiens): > 120 µM; IC50 ([6]; Homo sapiens): > 8 µM; IC50 ([7]; Homo sapiens, MCF7, 72 hours): > 100 µM; IC50 ([8]; Homo sapiens, NTERA2, 72 hours): > 0.4 µM |
| [NH2][Pt]([NH2])([Cl])([Cl])([O]C(=O)C(Cl)Cl)[O]C(=O)C(Cl)Cl [Mitaplatin, c,c,t-[Pt(NH3)2Cl2(O2CCHCl2)2]] | 14 µM | 3.34 µM | 6.4 µM | Apoptosis was detected | Apoptosis was detected | Apoptosis was detected | selectively kills the cancer cells | 18.3 µM | 1.1 µM | 2 µM | did not show any detectable apoptosis | 18 µM | 0.051 µM | mitochondrial membrane potential (Δψm), TMRM [9]: significantly depolarizes; also recorded: reverses the hyperpolarization; apoptosis inducing factor AIF location [14]: located in the nucleus; cytochrome c distribution [14]: diffusely distributed in the cytoplasm; effect on mitochondria (JC-1 fluorescence) [15]: had no effect; reduction potential, Pt(IV)/Pt(II) couple ([16]; pH 6.0, 25° C.): −0.152 V vs Ag/AgCl; reduction potential, Pt(IV)/Pt(II) couple ([16]; pH 7.4, irreversible cyclic voltammetric response, 25° C.): ~−0.173 V vs Ag/AgCl; mitochondrial membrane potential (Δψm), TMRM [17]: had no effect; also recorded: does not change the Δψm; cell death in co-culture, LIVE/DEAD staining [18]: selectively induced cell death in human cancer A549 cells, but not in normal MRC-5 cells; effect on mitochondria (JC-1 fluorescence) [20]: attacks the mitochondria |
| CC(=O)[O][Pt]([NH2])([NH2])([Cl])([Cl])[O]C(C)=O [c,c,t-[Pt(NH3)2Cl2(O2CCH3)2]] | – | – | – | – | – | – | – | – | – | – | – | – | – | resistance of A2780/CP70 cells to the compound ([2]; A2780/CP70 cells): much more resistant; activity relative to mitaplatin [21]: less active by several fold than mitaplatin |
| cis-[Pt(NH3)2Cl2] [Cisplatin] | 12 µM | 6 µM | 3.9 µM | Apoptosis was detected | Apoptosis was detected | Apoptosis was detected | kills both the normal and cancer cells | 9.5 µM | 0.56 µM | 1.2 µM | showed apoptosis | 13 µM | 0.043 µM | IC50 ([8]; 72 hours, listed as cis-DDP): 0.05 µM |

From US9265747B2, “Platinum (IV) complexes for use in dual mode pharmaceutical therapy” (Massachusetts Institute of Technology, priority 2008, dated 2016)
